Our source for the IC50 values is patent US12116358B2, “Substituted indoles and methods of use thereof” (EPIZYME, INC., priority 2018, dated 2024).

One assay concerns the target T1, SETD2(1434-1711) (Homo sapiens, UniProt Q9BYW2).
T1 construct: SETD2 (1434-1711) Assay; catalogue N/A
T1 sequence (Q9BYW2 1434-1711): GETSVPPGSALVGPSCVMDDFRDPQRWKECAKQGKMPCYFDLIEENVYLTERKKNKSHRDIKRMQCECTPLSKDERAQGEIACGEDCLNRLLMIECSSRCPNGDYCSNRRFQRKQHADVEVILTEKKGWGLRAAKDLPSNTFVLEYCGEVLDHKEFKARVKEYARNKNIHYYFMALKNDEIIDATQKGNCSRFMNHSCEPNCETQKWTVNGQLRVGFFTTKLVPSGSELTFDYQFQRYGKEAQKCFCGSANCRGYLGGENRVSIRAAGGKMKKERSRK
The experiment in a line: SETD2 (1434-1711) assay. It is filed as biochemical. The note with it: read-out: SETD2 (1434-1711).
As for `Cc1ccc(F)c2cc(C(=O)Nc3nnc(C4CCN(C)CC4)s3)[nH]c12` [compound 519], the IC50 is 50000 nM.
Still for that read-out and setting: to `CC(=O)N1CCN(C2COCC(NC(=O)c3cc4c(F)ccc(C)c4[nH]3)C2)CC1` (stereo not shown) [compound 987] belongs above 10000 nM; to `Cc1ccc(F)c2cc(C(=O)N[C@@H]3CCC[C@@H](N4CCn5c(cccc5=O)C4)C3)[nH]c12` [compound 1143], 1900 nM; to `Cc1ccc(F)c2cc(C(=O)Nc3cc(Cl)cc(N4CCC(N(C)C)C4)c3)[nH]c12` (stereo not shown) [compound 120], 6 nM.
Still for that read-out and setting: under `Cc1ccc(F)c2cc(C(=O)NC3CCCC(N4CCC(N(C)C(=O)CO)C4)C3)[nH]c12` (stereo not shown) [compound 995] stands 8 nM; under `Cc1ccc(F)c2cc(C(=O)Nc3cccc(N4C5CCC4COC5)c3)[nH]c12` [compound 291], 300 nM.
On the same count and under the same terms, under `Cc1cccc2cc(C(=O)NC3CCN(C(=O)CCCN)CC3C)[nH]c12` (stereo not shown) [compound 543] stands 2600 nM; under `Cc1ccc(F)c2cc(C(=O)NC3CCCC(N4CCCN(S(C)(=O)=O)CC4)C3)[nH]c12` (stereo not shown) [compound 981], 30 nM.
In the case of `CC(=O)N1CCN(CC2CCCN(C(=O)c3cc4c(F)ccc(C)c4[nH]3)C2)CC1` (stereo not shown) [compound 877], the IC50 is above 10000 nM.
As to `Cc1ccc(F)c2cc(C(=O)Nc3cccc(-c4ncn[nH]4)c3)[nH]c12` [compound 304], the IC50 came out at 300 nM.
As for `COc1cccc2cc(C(=O)NC(CCC(=O)N3CCOCC3)c3ncccc3C)[nH]c12` (stereo not shown) [compound 515], the IC50 turned out to be 25100 nM.
Take `Cc1ccc(F)c2cc(C(=O)NC3CCCC(N4CCn5c(nn(C)c5=O)C4)C3)[nH]c12` (stereo not shown) [compound 1142]: the IC50 stood at 4800 nM.
Turning to `Cc1ccc(F)c2cc(C(=O)Nc3cccc(N4C[C@H](O)[C@@H](N(C)C)C4)c3)[nH]c12` [compound 61], the IC50 is 10 nM.
Still for that read-out and setting: to `COCC1(N(C)C)CCN(c2cccc(NC(=O)c3cc4c(F)ccc(C)c4[nH]3)c2)CC1` [compound 253] belongs 50 nM.
Still for that read-out and setting: under `Cc1ccc(F)c2cc(C(=O)Nc3cccc(N4CCC(N(C)C)C4)c3)[nH]c12` (stereo not shown) [compound 59] stands 10 nM; under `Cc1ccc(F)c2cc(C(=O)Nc3cccc(C4CCN(C(=O)CN(C)C)C4)c3)[nH]c12` (stereo not shown) [compound 226], 60 nM.
Take `Cc1cccc2cc(C(=O)Nc3ccc4nc(CN(C)C)cn4c3)[nH]c12` [compound 546]: the IC50 amounted to 3900 nM.
For the compound `Cc1cccc2cc(C(=O)NC(C)c3ccccc3Cl)[nH]c12` (stereo not shown) [compound 1156], the IC50 amounted to 2100 nM.
On the same count and under the same terms, under `Cc1ccc(F)c2cc(C(=O)Nc3cccc(-c4cnc(N)[nH]4)c3)[nH]c12` [compound 501] stands 400 nM; under `Cc1ccc(F)c2cc(C(=O)NC3CCCC(N4CCN5C(=O)COCC5C4)C3)[nH]c12` (stereo not shown) [compound 1138], 10 nM; under `Cc1cccc2cc(C(=O)Nc3ccc4cnc(CN5CCN(C)CC5)cc4c3)[nH]c12` [compound 465], 400 nM.
Regarding `Cc1cccc2cc(C(=O)NC(c3cccc(CN(C)C)n3)C3CC3)[nH]c12` (stereo not shown) [compound 615], the IC50 stood at 71100 nM.
Turning to `Cc1ccc(F)c2cc(C(=O)Nc3cccc(CCN4CCN(C)CC4)c3)[nH]c12` [compound 244], the IC50 turned out to be 80 nM.
The same measure, in the same setting: to `Cc1cccc2cc(C(=O)Nc3ccc4nc[nH]c(=O)c4c3)[nH]c12` [compound 538] belongs 1000 nM; to `Cc1cccc2cc(C(=O)Nc3cccc(N4CCN(S(=O)(=O)C5CCC(N)CC5)CC4)c3)[nH]c12` (stereo not shown) [compound 429], 100 nM; to `Cc1ccc[n+]([O-])c1C(NC(=O)c1cc2cccc(C)c2[nH]1)C1CC1` (stereo not shown) [compound 576], 18600 nM.

The test system of another assay is H3K36me3 in A549 cells. The experiment in a line: In-Cell Western (ICW) assay of SETD2 inhibitors (A549 assay). The note with it: A549 cells; read-out: SETD2 A549. The assay is classed as cell-based, human. The essentials: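 A549 cells seeded at 4,000/well onto compound and incubated 3 days at 37° C. Methanol-fixed cells stained overnight at 4° C with anti-H3K36me3 (1:1000), then IRDye 800CW secondary with DRAQ5 DNA counterstain. Plates read by Licor imaging at 700 and 800 channels.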
Turning to `Cc1ccc(F)c2cc(C(=O)Nc3nnc(C4CCN(C)CC4)s3)[nH]c12` [compound 519], the IC50 came to 19300 nM.
Same read-out and setting: to `CC(=O)N1CCN(C2COCC(NC(=O)c3cc4c(F)ccc(C)c4[nH]3)C2)CC1` (stereo not shown) [compound 987] belongs above 2000 nM; to `Cc1ccc(F)c2cc(C(=O)N[C@@H]3CCC[C@@H](N4CCn5c(cccc5=O)C4)C3)[nH]c12` [compound 1143], above 2000 nM.
As for `Cc1ccc(F)c2cc(C(=O)NC3CCCC(N4CCC(N(C)C(=O)CO)C4)C3)[nH]c12` (stereo not shown) [compound 995], the IC50 was determined as 30 nM.
As for `Cc1cccc2cc(C(=O)NC3CCN(C(=O)CCCN)CC3C)[nH]c12` (stereo not shown) [compound 543], the IC50 is above 25000 nM.
On to `Cc1ccc(F)c2cc(C(=O)NC3CCCC(N4CCCN(S(C)(=O)=O)CC4)C3)[nH]c12` (stereo not shown) [compound 981], for which the IC50 was found to be 600 nM.
As for `Cc1ccc(F)c2cc(C(=O)Nc3cccc(-c4ncn[nH]4)c3)[nH]c12` [compound 304], the IC50 turned out to be 1200 nM.
In the case of `COc1cccc2cc(C(=O)NC(CCC(=O)N3CCOCC3)c3ncccc3C)[nH]c12` (stereo not shown) [compound 515], the IC50 stood at 18500 nM.
Turning to `Cc1ccc(F)c2cc(C(=O)NC3CCCC(N4CCn5c(nn(C)c5=O)C4)C3)[nH]c12` (stereo not shown) [compound 1142], the IC50 is above 2000 nM.
As to `Cc1ccc(F)c2cc(C(=O)Nc3cccc(N4C[C@H](O)[C@@H](N(C)C)C4)c3)[nH]c12` [compound 61], the IC50 was found to be 100 nM.
The same measure, in the same setting: under `COCC1(N(C)C)CCN(c2cccc(NC(=O)c3cc4c(F)ccc(C)c4[nH]3)c2)CC1` [compound 253] stands 600 nM; under `Cc1ccc(F)c2cc(C(=O)Nc3cccc(N4CCC(N(C)C)C4)c3)[nH]c12` (stereo not shown) [compound 59], 100 nM.
The same measure, in the same setting: under `Cc1ccc(F)c2cc(C(=O)Nc3cccc(C4CCN(C(=O)CN(C)C)C4)c3)[nH]c12` (stereo not shown) [compound 226] stands 500 nM; under `Cc1cccc2cc(C(=O)NC(C)c3ccccc3Cl)[nH]c12` (stereo not shown) [compound 1156], 19700 nM.
On the same count and under the same terms, under `Cc1ccc(F)c2cc(C(=O)Nc3cccc(-c4cnc(N)[nH]4)c3)[nH]c12` [compound 501] stands 14600 nM; under `Cc1ccc(F)c2cc(C(=O)NC3CCCC(N4CCN5C(=O)COCC5C4)C3)[nH]c12` (stereo not shown) [compound 1138], 20 nM; under `Cc1cccc2cc(C(=O)NC(c3cccc(CN(C)C)n3)C3CC3)[nH]c12` (stereo not shown) [compound 615], above 25000 nM.
Turning to `Cc1ccc(F)c2cc(C(=O)Nc3cccc(CCN4CCN(C)CC4)c3)[nH]c12` [compound 244], the IC50 was found to be 600 nM.

The assay is the same for the next values; noted with them: Homo sapiens; A549 cells; read-out: SETD2 A549.
As for `Cc1ccc(F)c2cc(C(=O)Nc3cc(Cl)cc(N4CCC(N(C)C)C4)c3)[nH]c12` (stereo not shown) [compound 120], the IC50 was found to be 300 nM.
Consider `Cc1ccc(F)c2cc(C(=O)Nc3cccc(N4C5CCC4COC5)c3)[nH]c12` [compound 291], for which the IC50 was 1100 nM.
The same measure, in the same setting: under `CC(=O)N1CCN(CC2CCCN(C(=O)c3cc4c(F)ccc(C)c4[nH]3)C2)CC1` (stereo not shown) [compound 877] stands above 2000 nM; under `Cc1cccc2cc(C(=O)Nc3ccc4nc(CN(C)C)cn4c3)[nH]c12` [compound 546], above 25000 nM.
On to `Cc1cccc2cc(C(=O)Nc3ccc4cnc(CN5CCN(C)CC5)cc4c3)[nH]c12` [compound 465], for which the IC50 turned out to be 6600 nM.
For the compound `Cc1cccc2cc(C(=O)Nc3ccc4nc[nH]c(=O)c4c3)[nH]c12` [compound 538], the IC50 is above 25000 nM.
On to `Cc1cccc2cc(C(=O)Nc3cccc(N4CCN(S(=O)(=O)C5CCC(N)CC5)CC4)c3)[nH]c12` (stereo not shown) [compound 429], for which the IC50 is 4300 nM.
As to `Cc1ccc[n+]([O-])c1C(NC(=O)c1cc2cccc(C)c2[nH]1)C1CC1` (stereo not shown) [compound 576], the IC50 is above 25000 nM.
